How the values were obtained:
[1] = test system: Human prostate cancer (LNCaP, DU145, PC-3) or normal epithelial (RWPE) cells; experiment: Western blot and luminescence assays of iCasp9 expression in prostate cancer and normal epithelial cells; format: cell-based; conditions: DU145, PC-3, RWPE cells treated with Fusogenix lipid nanoparticles carrying pVax-p53-iCasp9-luc plasmid
[2] = test system: Human prostate cancer PC-3 cells; experiment: Luminescence assay of iCasp9 expression in PC-3 cells; format: cell-based; conditions: PC-3 cells treated with Fusogenix lipid nanoparticles carrying pVax-p53-iCasp9-luc plasmid
Method: (§1) FIG. 42 is a bar graph of data from a luminescence assay of iCasp 9 and Casp 9 protein levels obtained with the p53-expressing cells presented in FIG. 36 (pVax-p53) and control cells (pcDNA3-GFP). Human prostate cancer PC-3 cells were treated with Fusogenix lipid nanoparticles carrying the pVax-p53-iCasp9-luc (luciferin) plasmid (in the presence and absence of the homodimerizer AP20187) and assessed for iCasp9 expression.
Human prostate cancer PC-3 cells were treated with Fusogenix lipid nanoparticles carrying the pVax-p53-iCasp9-luc (luciferin) plasmid (in the presence and absence of the homodimerizer AP20187) and assessed for iCasp9 expression.

[3] = test system: Human prostate cancer PC-3 cells; experiment: Western blot of iCasp9 and Casp9 protein levels in PC-3 cells; format: cell-based; conditions: PC-3 cells treated with Fusogenix lipid nanoparticles carrying pVax-p53-iCasp9-luc plasmid
Method: as §1, with “36” for “42”, “Western blot” for “bar graph of data from a luminescence assay”, “with” for “with the”, “cells” for “cells presented in FIG. 36”, “AP201870)” for “AP20187)”
Human prostate cancer PC-3 cells were treated with Fusogenix lipid nanoparticles carrying the pVax-p53-iCasp9-luc (luciferin) plasmid (in the presence and absence of the homodimerizer AP201870) and assessed for iCasp9 expression and subjected to Western blot analysis of iCasp 9 and Casp 9 protein levels obtained with p53-expressing cells (pVax-p53) and control cells (pcDNA3-GFP). FIG. 36.

[4] = humans; cited from earlier work
[5] = Anti-p14 and anti-LNP antibody response in immune competent mice; format: in vivo; conditions: with adjuvant: 3 injections of 50 μg p14 with Freund's adjuvant at 10 day intervals; sera after 30 days
Method: Mice were injected three (3) times at 10 day intervals with purified p14 mixed with Freund's adjuvant. A first dose contained CFA (complete Freund's adjuvant) while second and third doses contained IFA (incomplete Freund's adjuvant). Each injection was with 50 μg of p14. Mice were sacrificed after 30 days and sera was analyzed for anti-p14 antibodies. p14 lipid nanoparticles were also tested in two (2) mice via intravenous injection of 400 μg of p53-iCasp9 Fusogenix lipid nanoparticles containing 240 μg of p14. Mice were sacrificed after 30 days of injection and serum was analyzed for anti-p14 antibodies. A positive control included purified antibodies spiked in serum at a high dose of 250 ng/ml and a low dose of 50 ng/ml.

CC[C@H](C(=O)N1CCCC[C@H]1C(=O)O[C@H](CCc1ccc(OC)c(OC)c1)c1cccc(OCC(=O)NCCNC(=O)COc2cccc([C@@H](CCc3ccc(OC)c(OC)c3)OC(=O)[C@@H]3CCCCN3C(=O)[C@@H](CC)c3cc(OC)c(OC)c(OC)c3)c2)c1)c1cc(OC)c(OC)c(OC)c1 [AP1903]
expression of iCasp9 and luciferase after addition of CID [1]: abolishes the expression of iCasp9 and luciferase | expression of iCasp9 and luciferase after addition of CID [2]: abolishes the expression of iCasp9 and luciferase | expression of iCasp9 and luciferase after addition of CID [3]: abolishes the expression of iCasp9 and luciferase | intravenous safety [4]: confirmed

CC[C@H](C(=O)N1CCCC[C@H]1C(=O)O[C@H](CCc1ccc(OC)c(OC)c1)c1cccc(OCC(=O)NCC(CNC(=O)COc2cccc([C@@H](CCc3ccc(OC)c(OC)c3)OC(=O)[C@@H]3CCCCN3C(=O)[C@@H](CC)c3cc(OC)c(OC)c(OC)c3)c2)CN(C)C)c1)c1cc(OC)c(OC)c(OC)c1 [AP20187]
expression of iCasp9 and luciferase after addition of CID [1]: abolishes the expression of iCasp9 and luciferase | expression of iCasp9 and luciferase after addition of CID [2]: abolishes the expression of iCasp9 and luciferase | expression of iCasp9 and luciferase after addition of CID [3]: abolishes the expression of iCasp9 and luciferase

B1: p14: fusogenic p14 FAST fusion protein from reptilian reovirus, SEQ ID NO: 16 (protein, listed as Homo sapiens)
chain: MGSGPSNFVNHAPGEAIVTGLEKGADKVAGTISHTIWEVIAGLVALLTFLAFGFWLFKYLQKRRERRRQLTEFQKRYLRNSYRLSEIQRPISQHEYEDPYEPPSRRKPPPPPYSTYVNIDNVSAI
anti-p14 antibody response [5]: virtually no antibody response
